Measurements from PubChem BioAssay AID1845216 (Molecular Pharmacology Branch, DTP, NCI, 2023).
pIC50: −log10 of the molar value.

Test system: SW 982 tumor spheroid viability
Experiment: Anticancer human tumor SW 982 cell line growth inhibition;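 also: spheroids exposed to compound for 7 days before readout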
Conditions: spheroids with HUVEC and MSC; for pIC50: curve of first compound; for viability, T/C: stronger effect = lower value
Outline: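 Complex spheroids of malignant cells with endothelial cells and mesenchymal stem cells; agents alone or combined, from near clinical Cmax (or 10 microM if unknown) down in half-log steps, 0.25% DMSO final.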

[1] = second compound 0.003 µM, first compound 0.0316 µM
[2] = second compound 0.003 µM, first compound 0.1 µM
[3] = second compound 0.003 µM, first compound 0.316 µM
[4] = second compound 0.003 µM, first compound 1 µM
[5] = second compound 0.003 µM, first compound 3.16 µM
[6] = second compound 0.003 µM, first compound 10 µM

## [2H]c1nc(C)nc([2H])c1-c1cc(NC[C@@H](C)c2cccc3c(C(=O)NC)ccnc23)ncn1 + COc1cc2c(cc1O)CCNC21CSC2c3c(OC(C)=O)c(C)c4c(c3C(COC1=O)N1C(O)C3Cc5cc(C)c(OC)c(O)c5C(C21)N3C)OCO4
Second compound 30 pM
  pIC50: < 5.00
Second compound 94.9 pM
  pIC50: < 5.00
Second compound 0.0003 µM
  pIC50: < 5.00
Second compound 0.000949 µM
  pIC50: > 7.50
Second compound 0.003 µM
  pIC50: > 7.50
Second compound 30 pM, first compound 0.0316 µM
  viability, T/C: 91.1%
Second compound 30 pM, first compound 0.1 µM
  viability, T/C: 100%
Second compound 30 pM, first compound 0.316 µM
  viability, T/C: 98%
Second compound 30 pM, first compound 1 µM
  viability, T/C: 93.3%
Second compound 30 pM, first compound 3.16 µM
  viability, T/C: 90.3%
Second compound 30 pM, first compound 10 µM
  viability, T/C: 101%
Second compound 94.9 pM, first compound 0.0316 µM
  viability, T/C: 95.7%
Second compound 94.9 pM, first compound 0.1 µM
  viability, T/C: 90.7%
Second compound 94.9 pM, first compound 0.316 µM
  viability, T/C: 98.1%
Second compound 94.9 pM, first compound 1 µM
  viability, T/C: 93.8%
Second compound 94.9 pM, first compound 3.16 µM
  viability, T/C: 89.4%
Second compound 94.9 pM, first compound 10 µM
  viability, T/C: 91.2%
Second compound 0.0003 µM, first compound 0.0316 µM
  viability, T/C: 87.2%
Second compound 0.0003 µM, first compound 0.1 µM
  viability, T/C: 83.2%
Second compound 0.0003 µM, first compound 0.316 µM
  viability, T/C: 79.4%
Second compound 0.0003 µM, first compound 1 µM
  viability, T/C: 70.3%
Second compound 0.0003 µM, first compound 3.16 µM
  viability, T/C: 74.9%
Second compound 0.0003 µM, first compound 10 µM
  viability, T/C: 75.4%
Second compound 0.000949 µM, first compound 0.0316 µM
  viability, T/C: 37.3%
Second compound 0.000949 µM, first compound 0.1 µM
  viability, T/C: 26.5%
Second compound 0.000949 µM, first compound 0.316 µM
  viability, T/C: 44.4%
Second compound 0.000949 µM, first compound 1 µM
  viability, T/C: 44.1%
Second compound 0.000949 µM, first compound 3.16 µM
  viability, T/C: 42.6%
Second compound 0.000949 µM, first compound 10 µM
  viability, T/C: 21.9%
[1]
  viability, T/C: 0.62%
[2]
  viability, T/C: 1.1%
[3]
  viability, T/C: 1.05%
[4]
  viability, T/C: 0.69%
[5]
  viability, T/C: 0.48%
[6]
  viability, T/C: 0.77%

## COc1ccc([C@@H](O)c2cc(-c3ncnc4cc(N5CCOCC5)ccc34)c(F)cc2Cl)nn1 + CC[C@@]1(O)C(=O)OCc2c1cc1n(c2=O)Cc2cc3c(CN(C)C)c(O)ccc3nc2-1
Second compound 0.003 µM
  pIC50: 5.35
Second compound 0.00949 µM
  pIC50: 5.67
Second compound 0.03 µM
  pIC50: 5.92
Second compound 0.0949 µM
  pIC50: 6.28
Second compound 0.3 µM
  pIC50: 6.89
[1]
  viability, T/C: 96.9%
[2]
  viability, T/C: 95.5%
[3]
  viability, T/C: 92.1%
[4]
  viability, T/C: 90.9%
[5]
  viability, T/C: 59.8%
[6]
  viability, T/C: 27.1%
Second compound 0.00949 µM, first compound 0.0316 µM
  viability, T/C: 86.4%
Second compound 0.00949 µM, first compound 0.1 µM
  viability, T/C: 78.5%
Second compound 0.00949 µM, first compound 0.316 µM
  viability, T/C: 80.7%
Second compound 0.00949 µM, first compound 1 µM
  viability, T/C: 72.2%
Second compound 0.00949 µM, first compound 3.16 µM
  viability, T/C: 38.9%
Second compound 0.00949 µM, first compound 10 µM
  viability, T/C: 15%
Second compound 0.03 µM, first compound 0.0316 µM
  viability, T/C: 73.8%
Second compound 0.03 µM, first compound 0.1 µM
  viability, T/C: 76.2%
Second compound 0.03 µM, first compound 0.316 µM
  viability, T/C: 70.3%
Second compound 0.03 µM, first compound 1 µM
  viability, T/C: 53.9%
Second compound 0.03 µM, first compound 3.16 µM
  viability, T/C: 26.8%
Second compound 0.03 µM, first compound 10 µM
  viability, T/C: 12.8%
Second compound 0.0949 µM, first compound 0.0316 µM
  viability, T/C: 70.6%
Second compound 0.0949 µM, first compound 0.1 µM
  viability, T/C: 68.8%
Second compound 0.0949 µM, first compound 0.316 µM
  viability, T/C: 60.5%
Second compound 0.0949 µM, first compound 1 µM
  viability, T/C: 36.6%
Second compound 0.0949 µM, first compound 3.16 µM
  viability, T/C: 18.5%
Second compound 0.0949 µM, first compound 10 µM
  viability, T/C: 12.8%
Second compound 0.3 µM, first compound 0.0316 µM
  viability, T/C: 52.2%
Second compound 0.3 µM, first compound 0.1 µM
  viability, T/C: 55.7%
Second compound 0.3 µM, first compound 0.316 µM
  viability, T/C: 40.6%
Second compound 0.3 µM, first compound 1 µM
  viability, T/C: 23.2%
Second compound 0.3 µM, first compound 3.16 µM
  viability, T/C: 13.1%
Second compound 0.3 µM, first compound 10 µM
  viability, T/C: 10.2%
